Results on 3 molecules are retold here after patent US10774049B2, “PU.1 inhibitors” (Albert Einstein College of Medicine, priority 2016, dated 2020).

A word on the Kd: it is the concentration at which binding is half-saturated. A low value points to tighter binding.

One assay has as its target λB promoter DNA sequence. The assay can be described thus: SPR binding of compounds to immobilized λB promoter DNA. Further details: species or system murine. The settings on record: biosensor-SPR, 1:1 complex. The procedure:
FIG. 8A-8C depicts (A) DB2313 synthesis (B-C) Representative SPR sensorgrams for compounds binding to the immobilized λB promoter DNA sequence: (B) DB2313 (KD=7±2 nM) and (C) DB1976 (KD=5±2 nM) as previously described (Munde et al., 2014). The solid black lines are best fit values for global kinetic fitting of the results with a single binding site function. Similar experiments with DB2115 gave a KD=1±2 nM. The plots are for the SPR signal (RU) versus time from injection of the compound over the sensorchip. From 0 to 180 seconds, compound is being injected (association) and after that only buffer flows over the chip. (B) From top to bottom: 10, 30, 40 nM. (C) From top to bottom: 5, 10, 15 nM.
To test whether these heterocyclic diamidines targeted cognate DNA binding sites for PU.1, we assessed binding to the λB motif by biosensor-surface plasmon resonance (SPR). Duplex DNA harboring the λB motif was immobilized on a streptavidin functionalized sensor chip with a dextran surface as described. The DNA was 5′-end labeled with biotin and captured on the sensor chip. Based on the known strong AT selectivity of these heterocyclic diamidines, they are expected to bind to the AT rich λB promoter sequence at the 5′ side of the 5′-GGAA-3′ PU.1 conserved recognition sequence. Sensorgrams obtained from the compounds-DNA association and disassociation reactions were used to determine equilibrium dissociation constants. The KD values indicate strong binding by all three compounds to form a 1:1 complex, and a binding K^D of 1±2 nM for DB2115 and 4-7 nM for DB1976 and DB2313 with the λB promoter.
For orientation: SPR reads the build-up and loss of mass on a sensor chip optically.

Assay [1] deals with PU.1 URE−/− AML cell line. Kind of assay: Cell viability/growth of PU.1 URE−/− AML cells. It is filed as cell-based, murine. The settings on record: Mus musculus. As to the method:
(§1) FIG. 2A-2F. PU.1 inhibition decreases cell growth and increases apoptosis of PU.1^1″ leukemic cells. (A) Chemical structures of heterocyclic diamidines DB1976, DB2115 and DB2313 used in this study. (B) Relative cell viability of URE−/− cells and BAF3 cells after treatment with increasing concentrations of vehicle or small molecules. Cell viability was assessed after 48 h. Data represent means of technical triplicate from one representative experiment; fold change compared to Vehicle is shown. (C) Cell proliferation assay of URE−/− after treatment with DB1976 (n=5), DB2115 (n=3), DB2313 (n=3), of MOLM13 cells (n=3), and THP1 cells (n=3). Cell counting was performed every 24 h during 4 days. Data represent means±SD of technical triplicate from one representative experiment. Forward strand: SEQ ID NO:3, and Reverse strand: SEQ ID NO:4; derived from the λB motif from the murine Ig lambda 2-4 enhancer, a known native PU.1-dependent gene and specific binding site for PU.1. (D) Clonogenic capacities of URE−/− cells after treatment with DB1976 (n=5), DB2115 (n=3) and DB2313 (n=4) in the first plating, and after serial replatings (n=3). Data represent means±SD of technical triplicate from one representative experiment. (E) Apoptotic cells (Annexin-V+Dapi−) fraction in URE−/− cells after 48 h of treatment with DB1976 (n=6), DB2115 (n=6) and DB2313 (n=3). Data represent the means±SD of independent experiments; fold change compared to Vehicle is shown. *P<0.05, **P<0.01, ***P<0.001, ****P<0.0001 (F) Dose dependent inhibitor of PU.1-dependent transactivation.
To determine if our PU.1 inhibitors have an effect on PU.1^low-induced AML cells, we treated the PU.1 URE^−/− AML cell line with compounds at different concentrations. Treatment with the drugs led to a profound decrease in growth of PU.1 URE^−/− AML cells after 48 h whereas it had only minimal or no effects on control cells with normal PU.1 levels (BaF3), even at very high doses (FIG. 3A). […] Similar to our observations with PU.1-directed shRNAs, treatment with pharmacological PU.1 inhibitors led to a significant 1.6-, 2- and 3.5-fold increase of apoptotic cells with DB1976, DB2115 and DB2313, respectively, in murine PU.1 URE^−/− AML cells (FIG. 3C), and similar effects in human MOLM13 cells.

The subject of the next assay is PU.1 URE−/− AML cells. Kind of assay: Apoptosis (Annexin-V+Dapi−) in PU.1 URE−/− AML cells. It is filed as cell-based. The settings on record: murine PU.1 URE−/− AML cells, 48 h, vs vehicle. As to the method: as §1
To determine if our PU.1 inhibitors have an effect on PU.1^low-induced AML cells, we treated the PU.1 URE^−/− AML cell line with compounds at different concentrations. Treatment with the drugs led to a profound decrease in growth of PU.1 URE^−/− AML cells after 48 h whereas it had only minimal or no effects on control cells with normal PU.1 levels (BaF3), even at very high doses (FIG. 3A). […]

The next assay concerns PU.1 transactivation. Kind of assay: GFP reporter expression in bone marrow mononuclear cells of PU.1-GFP knock-in reporter mouse. The format is cell-based. The settings on record: PU.1-GFP knock-in bone marrow mononuclear cells. The source says:
To assess on-target activity of our inhibitors in AML cells, we measured transcript levels of well-known PU.1 targets in PU.1 URE^−/− AML cells. It has been shown that PU.1 positively regulates Csf1r, Junb, and autoregulates itself, whereas it represses E2f1. In line with this, we found a decrease in Csf1r, Junb, and PU.1 transcript expression and an increase in E2f1 expression upon treatment with DB2115, or DB2313 (FIG. 4A, left panel). As Csf1r is one of the most sensitive PU.1 targets in myeloid cells, we assessed its expression at different time points (1 h, 4 h, 8 h and 24 h) after drug treatment. […] Furthermore, treatment of bone marrow mononuclear cells isolated from a PU.1-GFP knock-in reporter mouse model led to a decrease in GFP reporter expression after treatment with DB1976, DB2115, or DB2313, further confirming a direct effect of the compounds on PU.1 transactivation (FIG. 4B), and consistent with PU.1 positive autoregulation.

Setting [2] is: after 48 h, read-out: IC50 in PU.1 URE−/− AML.

Where a name gives a salt, the structure may show the parent alone. Read-outs that look alike come from different tables or passages of the source.

Turning to `N=C(N)c1ccc2nc(-c3ccc(-c4nc5ccc(C(=N)N)cc5[nH]4)[se]3)[nH]c2c1` [DB1976], the Kd at λB promoter DNA sequence turned out to be 0.005 ± 0.002 µM. For the same molecule, the IC50 in assay [1] (setting [2]) was 25 µM. Also, the “fold increase of apoptotic cells” value with PU.1 URE−/− AML cells is given as 1.6 fold. The GFP reporter expression entry with PU.1 transactivation is recorded as “decrease”.
The corresponding values for `N=C(N)c1ccc2nc(-c3ccc(OCCCCOc4ccc(-c5nc6ccc(C(=N)N)cc6[nH]5)cc4)cc3)[nH]c2c1` [DB2115] are 0.001 ± 0.002 µM, 0.7 µM, 2 fold and “decrease”.
Turning to `CC(C)NC(=N)c1ccc2nc(-c3ccc(OCc4cccc(COc5ccc(-c6nc7ccc(C(=N)NC(C)C)cc7[nH]6)cc5)c4F)cc3)[nH]c2c1` [DB2313, 3-Bis{4[4(5)-N-isopropylamidinobenzimidazolyl]phenoxymethyl]}-2-fluorobenzene tetrahydrochloride], the Kd at λB promoter DNA sequence was determined as 0.007 ± 0.002 µM. For the same molecule, the IC50 in assay [1] (setting [2]) and in assay [1] (read-out: IC50 URE−/−) was 0.33 µM each time. In addition, in the assay with PU.1 URE−/− AML cells, the “fold increase of apoptotic cells” value amounted to 3.5 fold. Also, in the assay with PU.1 transactivation, the GFP reporter expression entry is recorded as “decrease”.
